Entries after “also recorded” stand apart in the source; their conditions may differ.
Legend:
[1] = rat adjuvant arthritis; cited from earlier work
OA-NOS [2] = assay: Sensitivity of OA-NOS to agents (Table 3 comparison)
iNOS [3] = assay: iNOS expression in stimulated rat chondrosarcomas; type: cell-based; details: for effect on iNOS in rat chondrosarcomas: LPS/cytokine-stimulated, L-NMMA 500 μM, indomethacin 20 μM; for inhibition of iNOS expression in rat chondrosarcomas: 72 h, added 1 h prior to cytokines
Protocol: NSAIDs were tested in: (FIG. 5A) rat chondrosarcomas stimulated with LPS, and (FIG. 5B) unstimulated OA cartilage (n=3).

NOS = details: cited from earlier work
iNOS [4] = assay: Nitrite accumulation in LPS-stimulated RAW 264.7 murine macrophages (Griess method); type: cell-based; details: for inhibition at 5 µM: RAW264.7, read-out: Nitrite released, % inhibition, 5 μM (Table 2: 5 μm)
Protocol: Effects of NSAIDs on Nitrite Accumulation. […] The expression and activity of iNOS were monitored by estimation of the stable end-product: nitrites.
concentrations of NSAIDs for 2 h followed by addition of 100 ng/ml of LPS
After 16-18 h of incubation, the medium was used to estimate the
accumulation of nitrite by the Greiss method (Green et al., Anal Biochem.
(§1) The specific activity of iNOS was determined in cellfre
(§2) extracts at a given time period as described. The nitrite and specific
activity data are representative of mean ± SD value, as determined by
student t test, for 10 and 4 independent experiments, respectively. The p
values described are compared with LPSstimulated cells. […]

human chondrocyte iNOS = details: cited from earlier work
human iNOS = details: crude lysates; cited from earlier work
iNOS [5] = assay: In vitro iNOS catalytic activity in cell-free extracts preincubated with drug (L-[3H]-arginine to L-[3H]-citrulline); type: biochemical, murine; details: for inhibition of iNOS catalytic activity in cell-free extracts (specific activity in in vitro assay): 1 mM
COX = details: cited from earlier work
OA-NOS [6] = assay: Nitrite release by OA-affected articular cartilage, ex vivo organ culture; type: cell-based, human
iNOS [7] = assay: Specific activity of iNOS in cell-free extracts of RAW 264.7 cells exposed to drug during LPS induction; type: cell-based, murine
Protocol: Assays for iNOS in Cell-Free Extracts. […] The reaction mixture for iNOS assay (in cell-free extracts) consists of Tris […] (pH 7.8); BSA 1 mg/ml; DTT 1 mM; CaCl2, 2 mM; FAD 10 μM; BH4 10 μM; L-arginine 30 μM; NADPH 1 mM. The assay mixture for cNOS consists of Tris 50 mM (pH 7.8); L-arginine 50 μM; calmodulin 10 μg/ml; BH4 10 μM; CaCl2 2 mM; NADPH 100 μM. RAW 264.7 cells were induced with LPS in the presence and absence of NSAIDs for 16-18 h. […] Cells were re-pelleted at 4° C. and resuspended in Tris buffer (10 mM, pH 7.4) containing 1 mg/ml each chymostatin, antipain, leupeptin and pepstatin, 1 mM DTT and 1 mM PMSF. Cells were lysed in a Polytron PT 1200 homogenizer (Kinematica AG, Switzerland) after 3 cycles of rapid freeze-thawing. The lysate was centrifuged at 16,000 rpm for 60 min at 4° C., and the supernatants were used as cell-free extracts. […] After 20 min the assays were terminated by heating the reaction mixture at 90° C. for 5 min. The precipitates were removed by centrifuging at 15,000 rpm for 20 min. Ten microliters (≈50,000 cpm) of the supernatant was spotted on activated Avicel TLC plates (Analtech, Newark, Del.). The TLC plates were developed in a solvent system consisting of ethanol:water:ammonia (80:16:4). Quantitation of the spot for L-[^3 3H]-citrulline was performed by a Bioscan System 200 Imaging Scanner. A phosphoimager can also be used for such quantification.
as §1, §2

iNOS [8] = assay: iNOS protein expression, Western blot, LPS-treated RAW 264.7 cells; type: cell-based, murine
Protocol: Western Blot Analysis. Equal amounts of protein (50 μg) estimated by BCA reagent (Pierce, Rockford, Ill.) were loaded onto SDS-PAGE gels and stained to verify the concentrations of various protein fractions by examining the intensities of the protein bands on the gels. Western blot analysis was carried out from the same cell extracts. The Western-blotted membrane was probed with a specific anti-iNOS monoclonal antibody, as specified by Transduction Laboratories (Lexington, Ky.). The blots were developed using the ECL Western blot system (Amersham, Arlington Heights, Ill.). Quantitation of the bands was performed using a densitometer from Molecular Dynamics (Sunnyville, Calif.).
The protein expression data are represented as
ND = not done. NS = not significant.
A Western blot analysis of iNOS protein was carried out in cells treated with […] LPS in the presence and absence of NSAIDs for 16-18 h.

NF-κB = details: cited from earlier work
neutrophil = details: data not shown; read-out: ability to inhibit fMet-Leu-Phe-induced neutrophil aggregation (IC50); cited from earlier work
[9] = systemic, rodent; cited from earlier work
[10] = Mus musculus, LPS 100 ng/ml, 16-18 h

N=C(N)NCCC[C@H](N)C(=O)O [L-arginine]
NO biosynthesis, paw swelling and histopathological changes in ankle joints [1]: competitively reversed the effect of L-NMMA

TGF-β
sensitivity of OA-NOS (OA-NOS [2]): insensitive; also recorded: not sensitive

C[C@]12CCC(=O)C=C1CC[C@@H]1[C@@H]2[C@@H](O)C[C@@]2(C)[C@H]1CC[C@]2(O)C(=O)CO [Hydrocortisone, hydrocortisone]
effect on iNOS in rat chondrosarcomas (iNOS [3]): no significant effect on iNOS expression | NOS expression in murine macrophages, endothelial cells and smooth muscles (NOS): abolishes NOS expression | Nitrite released, % inhibition (iNOS [4]; 5 μM (Table 2: 5 μm), LPS 100 ng/ml, 16-18 h, 5 µM): 63.0% | inhibition at 5 µM (iNOS [4]; [10]): > 60% | sensitivity of OA-NOS (OA-NOS [2]): insensitive; also recorded: not sensitive | sensitivity of human chondrocyte iNOS (human chondrocyte iNOS): lack of sensitivity

CC(C)Cc1ccc(C(C)C(=O)O)cc1 (stereo not drawn) [ibuprofen]
effect on iNOS in rat chondrosarcomas (iNOS [3]): no significant effect on iNOS expression

O=C(O)CN(CCN(CC(=O)O)CC(=O)O)CC(=O)O [EDTA, ethylenediaminetetraacetic acid]
human iNOS activity (human iNOS): markedly reduces

COc1ccc2c(c1)c(CC(=O)O)c(C)n2C(=O)c1ccc(Cl)cc1 [Indomethacin, indomethacin]
inhibition of iNOS specific activity in in vitro assay (iNOS [5]; 5 μM, 20 min preincubation): 0% | COX inhibition (COX): a potent inhibitor of COX | extent of inhibition of nitrite accumulation (iNOS [4]): not appreciably greater than that seen with 5 μM | inhibition at 5 µM (iNOS [4]; [10]): ~7% | rank order of inhibition of spontaneous nitrite accumulation (OA-NOS [6]): aspirin>indomethacin>sodium salicylate | inhibition at 5 µM (iNOS [7]; Mus musculus, RAW264.7, 16 h, read-out: Specific activity, % inhibition, 5 μM (Table 2: 5 μm), cell-free extracts, 16 h): 2% | inhibition at 5 µM (iNOS [8]; Mus musculus, RAW264.7, read-out: inhibition of iNOS protein expression, 5 μm (Table 2)): 0%

C[C@@H]1C[C@H]2[C@@H]3CCC4=CC(=O)C=C[C@]4(C)[C@@]3(F)[C@@H](O)C[C@]2(C)[C@@]1(O)C(=O)CO [dexamethasone]
NOS expression in murine macrophages, endothelial cells and smooth muscles (NOS): abolishes NOS expression | sensitivity of human chondrocyte iNOS (human chondrocyte iNOS): lack of sensitivity

O=C([O-])c1ccccc1O.[Na+] [Sodium salicylate, sodium salicylate]
inhibition of iNOS expression in rat chondrosarcomas (iNOS [3]): ~ 55% | effect on iNOS in rat chondrosarcomas (iNOS [3]): significant inhibition of iNOS | inhibition of iNOS catalytic activity in cell-free extracts (specific activity in in vitro assay) (iNOS [5]; 20 min preincubation): ~ 1% | effect on the catalytic activity of iNOS (iNOS [5]; indomethacin 5 μM, sodium salicylate 1 mM): no significant differences; also recorded: no significant effect on the catalytic activity of iNOS | activation of NF-κB (NF-κB; 5-20 mM, suprapharmacological): interfere in the activation of NF-κB | NF-κB-dependent transcription (NF-κB; aspirin 3 mM, sodium salicylate 5 mM, luciferase reporter): inhibit NF-κB-dependent transcription | NF-κB activation, gel shift assays (NF-κB; same concentrations (aspirin 3 mM; sodium salicylate 5 mM)): no significant effect on NF-κB activation | COX inhibition (COX): an ineffective inhibitor of COX | Nitrite released, Nitrite (iNOS [4]; 3 mM, LPS 100 ng/ml, 16-18 h): 27.1 ± 8.8 µM | IC50 (iNOS [4]; Mus musculus, RAW264.7, read-out: IC50 with respect to nitrite accumulation): 20 mM | inhibition at 3000 µM (iNOS [4]; Mus musculus, RAW264.7, read-out: Nitrite released, % inhibition, 3 mM, LPS 100 ng/ml, 16-18 h): ~7% | inhibition at 20000 µM (iNOS [4]; Mus musculus, RAW264.7, read-out: inhibition of accumulation of nitrites, 20 mM, suprapharmacological): 50% | inhibition at 5000 µM (iNOS [4]; Mus musculus, RAW264.7, read-out: inhibition of nitrite accumulation, 5 mM, suprapharmacological): 15 ± 1% | sensitivity of OA-NOS (OA-NOS [2]): inhibited; also recorded: shows sensitivity | effect on nitrite accumulation / NOS expression in OA cartilage (OA-NOS [6]): blocked iNOS expression in OA cartilage | rank order of inhibition of spontaneous nitrite accumulation (OA-NOS [6]): aspirin>indomethacin>sodium salicylate | Specific activity of iNOS (iNOS [7]; 3 mM): 304.0 ± 48.1 pmol/min/mg protein | inhibition at 3000 µM (iNOS [7]; Mus musculus, RAW264.7, 16 h, read-out: Specific activity, % inhibition, 3 mM, cell-free extracts, 16 h): 2% | effect on specific activity of iNOS (iNOS [7]; NaSal 3 mM, indomethacin 5 μM (Table 1), therapeutic concentrations): did not inhibit | IC50 (neutrophil): 3 mM | inhibition of iNOS expression (iNOS [8]; 2-3 mM, variable in 4 independent experiments): 0-35% | effect on iNOS expression at increased concentration (iNOS [8]; 5 and 20 mM): did not cause increased inhibition of iNOS expression | inhibition at 2000 µM (iNOS [8]; Mus musculus, RAW264.7, read-out: inhibition of iNOS expression, 2 mM, Western blot, 16-18 h): ~15% | inhibition at 3000 µM (iNOS [8]; Mus musculus, RAW264.7, read-out: inhibition of iNOS protein expression, 3 mM, approximate, densitometry): ~15%

TNF-α
arthritis morbidity / protection [9]: increase arthritis morbidity

C[C@@H]1C[C@@H]([C@H](O)CC2CC(=O)NC(=O)C2)C(=O)[C@@H](C)C1 [cycloheximide]
sensitivity of OA-NOS (OA-NOS [2]): blocked; also recorded: shows sensitivity | inhibition at 3.5 µM (OA-NOS [6]; Homo sapiens, 3.5 μM, 24 h, read-out: inhibition of nitrite accumulation): > 90% | inhibition at 17.5 µM (OA-NOS [6]; Homo sapiens, 17.5 μM, 24 h, read-out: inhibition of nitrite accumulation): > 90% | block of nitrite accumulation (OA-NOS [6]; cycloheximide 35 μM or PDTC 30 μM, 24 h, cytokine/endotoxin-induced and control cartilage): > 90%

N=C(N)NN [aminoguanidine]
sensitivity of OA-NOS (OA-NOS [2]): blocked; also recorded: shows sensitivity | effect on nitrite accumulation / NOS expression in OA cartilage (OA-NOS [6]): inhibited

NC(=O)N1C(=O)/C(=C(\O)c2cccs2)c2cc(Cl)ccc21 [tenidap]
inhibition of iNOS expression in rat chondrosarcomas (iNOS [3]): ~ 50% | effect on iNOS in rat chondrosarcomas (iNOS [3]): significant inhibition of iNOS

CC(=O)Nc1ccc(O)cc1 [Acetaminophen, acetaminophen]
effect on iNOS in rat chondrosarcomas (iNOS [3]): no significant effect on iNOS expression | block of nitrite production (iNOS [4]; 60-120 μM, LPS-stimulated): 1±1%

CC(=O)n1ccnc1 [N-acetylimidazole]
inhibition of iNOS catalytic activity in cell-free extracts (specific activity in in vitro assay) (iNOS [5]; 20 min preincubation): ~ 74% | inhibition of iNOS catalytic activity in cell-free extracts (specific activity in in vitro assay) (iNOS [5]; 20 min preincubation, listed as NAI): 74% | cyclooxygenase and peroxidase activity of COX (COX): inhibits both the cyclooxygenase and the peroxidase activity of COX
